Results taken from a melting point compilation (Tetko et al.; mined from patent text by program, amines drawn as free bases though some values may be those of a salt).

SMILES	melting point [°C]
Cc1cc(-c2cn(-c3cccc(OCCCl)c3)c3ncnc(N)c23)cc(C)c1OCc1ccccc1	188 to 190
C=CCNC(=O)c1ccccc1C(c1ccc(O)cc1)c1ccc(O)cc1	179 to 181
O=c1c2[nH]c(Cl)nc2n(CC2CC2)c(=O)n1CC1CC1	220
CC(=O)Oc1coc(-c2cccc(N)c2)cc1=O	127 to 129
O=c1oc2c(I)cc(I)cc2s1	155 to 157
Cc1c2c(c(-c3ccc(F)cc3)c3c4c(ccc13)OCO4)C(=O)NC2=O	302 to 304
CCOC(=O)c1cc(C)n(-c2cccc(N(C)C)c2)c1-c1ccccc1	112 to 114
Clc1ccc2scc(Br)c2c1	85 to 86
CCOP(=O)(Cc1ccc(NC(=O)C2=Cc3cc(C4CCCCC4)ccc3CC2)cc1)OCC	137 to 138
C#CCOc1ccc(OCC2OC2(C)C)cc1 (centres undefined)	72 to 73
Cc1ccc(-c2c(O)nn(CCO[Si](C)(C)C(C)(C)C)c2N)cc1	194 to 195
CCc1cnc(N2CCN(C(=O)c3ccc(CNc4nc(-c5ccccc5)nc5ccccc45)cc3)CC2)nc1	207 to 208
COCCOc1cccc(-c2ccnc3c(C(=O)c4cccs4)cnn23)c1	112 to 116
COc1ccc2c(C3=C(c4cn(C)c5cc(OC)ccc45)C(=O)NC3=O)cn(C)c2c1	257 to 258
CCC(C)C(=O)NC1CCC(CCN2CCN(c3nccc4c3OCC4)CC2)CC1 (racemic)	196
O=C(COc1cc(-c2cccc(Cl)c2)nc2ccccc12)N1CCOCC1	131
CC1=NC(=NOC(=O)N(C)C)SC1(C)C	108 to 110
Cn1c(=O)[nH]c(=O)n(-c2cc([N+](=O)[O-])c(F)cc2Cl)c1=O	135 to 139
NC(=O)c1c(C(F)(F)F)oc2cc(O)ccc2c1=O	> 310
O=[N+]([O-])CS(=O)(=O)c1c(F)c(F)cc(F)c1F	86 to 87
CC(C)c1c[nH]c(=O)[nH]c1=O	284 to 286
CCCCc1nc2c(N)nc3ccccc3c2n1NCc1ccccc1	159 to 160
O=C1C2C=CCCC2C(=O)N1CCO (centres undefined)	48 to 51
CC(C)(C)c1ccc(S(=O)(=O)N2c3ccccc3C[C@H]2C(=O)NCc2ccc(NCC(=O)O)cc2)cc1	110
CCCCc1nc2cc(C)c(C)cc2n1Cc1ccc(C#N)cc1	160

SMILES	melting point [°C]
CCCc1nc(N)c(C(=O)OCC)[nH]1	111 to 114
O=C(O)c1coc2ccc(Br)cc2c1=O	260 to 264
C[C@H](Cn1cnc2c(=O)[nH]c(N)nc21)OCP(=O)(O)O	270 to 272
COc1cccc(OC)c1C=CC(=O)c1c(OC)cccc1OC	179 to 180
COC(=O)CC(=O)c1cc(C(=O)OC)cc(-n2cccc2)c1	82 to 84
Cc1ccc(C(N)=O)cc1NC(=O)COCCO	118 to 119
COc1c(NC(=O)COc2ccccc2)c(C(N)=O)c(OC)c(NC(=O)COc2ccccc2)c1C(N)=O	272 to 274
OCc1ccc(-c2cccc(-c3cn([C@H]4CN5CCC4CC5)nn3)c2)s1	176
CCOC(=O)CNc1ccc(NS(C)(=O)=O)cc1	135 to 138
CCCCc1cccc(=O)n1Cc1ccc(-c2ccccc2-c2nnn[nH]2)cc1	105
Cc1ccc(NC(=O)NCc2cccc3c2CN(C2CCC(=O)NC2=O)C3=O)cc1Cl (centres undefined)	> 260
CC(C)C(=O)C[C@@H](O)C(=O)O	67 to 68
N#CCCNC(=O)c1cccc(-c2ccc3c(c2)N(CCc2cccc(C(F)(F)F)c2)CC3)c1	197 to 198
Cc1cc(=O)n(-c2c(Cl)cc(C(F)(F)F)cc2Cl)[nH]1	174 to 175
O=C(O)CCN1C(=O)c2ccc(C(=O)O)cc2C1=O	240 to 242
OC(c1cccs1)C1CCCCC1 (centres undefined)	90 to 92
CCCCCCCCCCCCCCCCCCOc1ccc(NC(=O)c2ccc(OC(C)=O)cc2)cc1	154
CC(=O)c1cc2c(s1)C(N1CCCC1=O)C(O)C(C)(C)O2 (centres undefined)	102 to 106
CN(Cc1cccc(-c2ccc(O)cc2)c1)C(=O)OC(C)(C)C	174
COc1cccc2c(C)c3n(c(=O)c12)CCCS3	122 to 123
O=C1COCc2cc(Br)ccc21	144 to 146
CCCN(CCCCc1c[nH]c2ccc(F)cc12)C1COc2c(F)ccc(C(=O)NC)c2C1 (centres undefined)	110
CCCn1nc2c(N)nc3ccccc3c2c1CCCCS(C)(=O)=O	155 to 157
Cc1ccccc1-c1cccc(C=CC(=O)O)c1	124 to 125
COC(=O)c1cccc(S(=O)(=O)Cc2c(O)ccc3c2CCCC3=O)c1	230 to 232

SMILES	melting point [°C]
CCCc1ccc(-c2ccc(=O)[nH]n2)cc1	180 to 182
Cc1ccc2c(n1)[nH]c1ccc(C(=O)c3ccccc3)cc12	231
CC(=O)NC1=CC(C)(C)Oc2ccc(C#N)cc21	146 to 147
O=C(Nc1cc2nc(-c3ccc(C(=O)C4CCCCC4)cc3)[nH]c2cn1)C1CCCCC1	235
Clc1ccc(-c2cc(C3CC3)n3ncc(I)c3n2)cc1	189 to 190
COC(=O)c1cc(C=O)cc([N+](=O)[O-])c1	85
Cc1cc(-n2ccnc2)c2cccc(OCc3c(Cl)ccc(S(=O)(=O)N4CCCC4C(=O)NCC4CCN(CCC(=O)OC(C)(C)C)CC4)c3Cl)c2n1 (centres undefined)	92
CCCCCCCCCCNC(=O)c1ccc(N(CC(=O)OC)CC(=O)OC)cc1	104 to 106
CCOC(=O)c1nnc(-c2cc3cc(Oc4ccc(S(C)(=O)=O)cc4)cc(OCc4ccccc4)c3[nH]2)s1	194 to 195
CC(=O)OCCc1cc2c(s1)CCC1CC(=O)N(c3ccc(C)cc3)N=C21 (centres undefined)	73 to 75
CC12CCC(O)CC1=CCC1C2CCC2(C)C(n3ncnn3)=CCC12 (centres undefined)	195 to 198
Cc1ncsc1CCNC(=O)c1cnc(N2CCN(C(=O)c3c(-c4ccccc4)n(C)c4cccnc34)CC2)cn1	225
CCc1nc(=O)[nH]c2sccc12	217 to 220
COCCOc1cc(NS(=O)(=O)c2ccccn2)c2[nH]c(C3=NCC(CN4CCS(=O)CC4)S3)cc2c1 (centres undefined)	235 to 236
CN(C)CCCNC(=O)N1C(=O)Cc2cc(Cl)ccc21	84 to 85
CCOC(=O)c1ccc(-c2nc(O)c(C)s2)cc1	207 to 208
CCC(=C(c1ccc(I)cc1)c1ccc(OCCCCCl)cc1)c1ccccc1	85 to 87
Cc1ccc(OC2CCN(C(=O)C(=O)Nc3ccc4[nH]c(=O)sc4c3)CC2)cc1	215 to 217
O=c1[nH]c2cc(Cl)ccc2c(O)c1-c1ccccc1Cl	> 300
CS(=O)(=O)c1nc2ccccn2c1S(N)(=O)=O	214 to 216
CCOC(=O)c1cnc(-c2ccccc2)nc1Nc1ccccc1	98 to 100
Cc1nc(Cl)c2c3c(oc2n1)CCCC3	42.4 to 43.8
C=C(Cc1ccccc1)C(=O)NN1CCSCC1	141
O=[N+]([O-])c1cccnc1Sc1nc(Cl)no1	84
